Our source for the IC50 values is US9409907B2, “Inhibitor compounds” (Cancer Research Technology Limited, priority 2012, dated 2016).

pIC50: −log10 of the molar value.

For this assay, the target named is full length MPS1 (Homo sapiens (Human), UniProt P33981). In words: Measurement of inhibition of MPS1 kinase (Caliper EZ reader mobility-shift enzyme assay). The format is biochemical. To be noted: full length MPS1 12.5 nM or 3 nM, H236 peptide 5 μM, ATP 10 μM, 60 min at room temperature. The method, then: Measurement of Inhibition of MPS1 Kinase
Sequence of full length MPS1 (P33981 whole entry): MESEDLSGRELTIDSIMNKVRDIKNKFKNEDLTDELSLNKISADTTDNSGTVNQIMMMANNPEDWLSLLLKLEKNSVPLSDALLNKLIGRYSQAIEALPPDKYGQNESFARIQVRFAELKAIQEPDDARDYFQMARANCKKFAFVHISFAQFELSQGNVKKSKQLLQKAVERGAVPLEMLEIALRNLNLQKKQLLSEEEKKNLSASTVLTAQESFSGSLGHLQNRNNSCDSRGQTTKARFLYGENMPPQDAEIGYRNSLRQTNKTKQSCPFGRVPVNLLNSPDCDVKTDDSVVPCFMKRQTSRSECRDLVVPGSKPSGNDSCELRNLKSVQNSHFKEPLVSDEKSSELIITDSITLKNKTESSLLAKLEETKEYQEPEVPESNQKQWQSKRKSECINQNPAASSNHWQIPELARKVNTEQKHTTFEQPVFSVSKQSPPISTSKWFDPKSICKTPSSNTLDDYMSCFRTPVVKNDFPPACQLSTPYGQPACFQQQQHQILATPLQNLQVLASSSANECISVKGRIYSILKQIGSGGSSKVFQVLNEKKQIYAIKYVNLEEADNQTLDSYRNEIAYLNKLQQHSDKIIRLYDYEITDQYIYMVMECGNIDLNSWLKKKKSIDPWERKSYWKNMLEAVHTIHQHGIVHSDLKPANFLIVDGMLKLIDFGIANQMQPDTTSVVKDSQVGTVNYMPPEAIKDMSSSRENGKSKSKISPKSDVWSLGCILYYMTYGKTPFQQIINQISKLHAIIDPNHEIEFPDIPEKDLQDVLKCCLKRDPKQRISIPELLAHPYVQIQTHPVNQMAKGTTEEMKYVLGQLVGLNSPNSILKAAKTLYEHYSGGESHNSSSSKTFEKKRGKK
The reaction was carried out for 60 min at room temperature and stopped by the addition of buffer (10 μl) containing 20 mM EDTA, 0.05% (v/v) Brij-35, in 0.1M HEPES-buffered saline (Free acid, Sigma, UK). The plate was read on a Caliper EZ reader II (Caliper Life Sciences).
The % inhibition of the compounds is calculated relative to the means of selected control wells.
The term pIC50 denotes the negative decadic logarithm of the IC50, by convention in mol/L. Regarding `COc1nc(-c2cnc(C)n2C)ccc1Nc1ncc2ccnc(NCC(C)(C)OC)c2n1` [Example 162, N^2-(6-(1,2-Dimethyl-1H-imidazol-5-yl)-2-methoxypyridin-3-yl)-N^8-(2-methoxy-2-methylpropyl)pyrido[3,4-d]pyrimidine-2,8-diamine], the pIC50 is 8.52.
For `COc1cc(-c2cnn(C)c2)ccc1Nc1ncc2ccnc(N3CCC(F)(F)C3)c2n1` [Example 57, 8-(3,3-difluoropyrroldin-1-yl)-N-(2-methoxy-4-(1-methyl-1H-pyrazol-4-yl)phenyl)pyrido[3,4-d]pyrimidin-2-amine] the value was 7.92; for `COc1cc(-c2cnn(C)c2)ccc1Nc1ncc2ccnc(NCC3(C)COC3)c2n1` [Example 109, N^2-(2-methoxy-4-(1-methyl-1H-pyrazol-4-yl)phenyl)-N^8-((3-methyloxetan-3-yl)methyl)pyrido(3,4-d]pyrimidine-2,8-diamine], 8.70.
In the case of `COc1cc(-c2cnn(C)c2C)ccc1Nc1ncc2ccnc(NCC3(C)CCOC3)c2n1` (stereo not shown) [Example 148, N^2-(4-(1,5-dimethyl-1H-pyrazol-4-yl)-2-methoxyphenyl)-N^8-((3-methyltetrahydrofuran-3-yl)methyl)pyrido[3,4-d]pyrimidine-2,8-diamine], the negative-log IC50 (pIC50) was 8.52.
Next, `Clc1cc(-c2cncnc2)ccc1Nc1ncc2ccnc(N3CCC4(COC4)C3)c2n1` [Example 200]: 8.22; `COc1cc(C(=O)N2CC(OC)C2)ccc1Nc1cc2c(-c3cnn(C4CCN(C(=O)OC(C)(C)C)CC4)c3)cccc2cn1` [Example 3, tert-butyl 4-(4-(3-((2-methoxy-4-(3-methoxyazetidine-1-carbonyl)phenyl)-amino)isoquinolin-5-yl)-1H-pyrazol-1-yl)piperidine-1-carboxylate]: 6.90.
Next, `COc1cc(C(=O)N2CC(OC)C2)ccc1Nc1cc2c(-c3cncnc3)cccc2cn1` [Example 15, (3-methoxy-4-((5-(pyrimidin-5-yl)isoquinolin-3-yl)amino)phenyl)(3-methoxyazetidin-1-yl)methanone]: 7.01; `COc1nc(-c2cnnn2C)ccc1Nc1ncc2ccnc(NCC(C)(C)OC)c2n1` [Example 166, N^8-(2-Methoxy-2-methylpropyl)-N^2-(2-methoxy-6-(1-methyl-1H-1,2,3-triazol-5-yl)pyridin-3-yl)pyrido[3,4-d]pyrimidine-2,8-diamine]: 8.52; `COc1cc(-c2cnn(C)c2)ccc1Nc1ncc2ccnc(N3CCC(CO)C3)c2n1` (stereo not shown) [Example 133, (1-(2-(2-Methoxy-4-(1-methyl-1H-pyrazol-4-yl)phenylamino)pyrido[3,4-d]pyrimidin-8-yl)pyrrolidin-3-yl)methanol]: 8.52.
Turning to `COc1cc(-c2cnn(C)c2)ccc1Nc1ncc2ccnc(NCC3(C)CCOC3)c2n1` (racemic) [Example 117, N^2-(2-methoxy-4-(1-methyl-1H-pyrazol-4-yl)phenyl)-N^8-((3-methyltetrahydrofuran-3-yl)methyl)pyrido[3,4-d]pyrimidine-2,8-diamine], the negative logarithm of the IC50 (pIC50) was 8.52.
`COc1cc(-c2nncn2C)ccc1Nc1ncc2cc(C)nc(NCC(C)(C)C)c2n1` [Example 179, N2-(2-methoxy-4-(4-methyl-4H-1,2,4-triazol-3-yl)phenyl)-6-methyl-N8-neopentylpyrido[3,4-d]pyrimidine-2,8-diamine]: the pIC50 was 8.70.
For `COc1cc(-c2cnn(C)c2)ccc1Nc1cc2c(NC3CCCCC3)nccc2cn1` [Example 105, N1-cyclohexyl-N7-(2-methoxy-4-(1-methyl-1H-pyrazol-4-yl)phenyl)-2,6-naphthyridine-1,7-diamine] the value was 7.25.
As to `Cn1cc(-c2ccc(Nc3cc4c(-c5cnn(C)c5)cccc4cn3)c(Cl)c2)cn1` [Example 23], the pIC50 is 6.65.
In the case of `COc1cc(-c2cnn(C)c2)ccc1Nc1ncc2ccnc(-c3ccncc3)c2n1` [Example 209, N-(2-Methoxy-4-(1-methyl-1H-pyrazol-4-yl)phenyl)-8-(pyridin-4-yl)pyrido[3,4-d]pyrimidin-2-amine pyridin-4-ylboronate], the pIC50 was 8.15.
Take `COc1cc(-c2cnn(C)c2)ccc1Nc1ncc2ccnc(NCCO)c2n1` [Example 126, 2-(2-(2-Methoxy-4-(1-methyl-1H-pyrazol-4-yl)phenylamino)pyrido[3,4-d]pyrimidin-8-ylamino)ethanol]: the pIC50 is 7.96.
`CCOc1cc(-c2cnn(C)c2)ccc1Nc1ncc2ccnc(NC3CCOCC3)c2n1` [Example 102, N2-(2-ethoxy-4-(1-methyl-1H-pyrazol-4-yl)phenyl)-N8-(tetrahydro-2H-pyran-4-yl)pyrido[3,4-d]pyrimidine-2,8-diamine]: the pIC50 is 8.00.
Take `COc1cc(-c2cnn(C)c2)ccc1Nc1ncc2ccnc(N3CC(OC)C3)c2n1` [Example 67, N-(2-methoxy-4-(1-methyl-1H-pyrazol-4-yl)phenyl)-8-(3-methoxyazetidin-1-yl)pyrido[3,4-d]pyrimidin-2-amine]: the pIC50 is 8.00.
Next, `COc1cc(-c2cnn(C)c2)ccc1Nc1cc2c(NCC3CC3)nccc2cn1` [Example 106, N1-(cyclopropylmethyl)-N7-(2-methoxy-4-(1-methyl-1H-pyrazol-4-yl)phenyl)-2,6-naphthyridine-1,7-diamine]: 7.09.
For `COc1cc(-c2nncn2C)ccc1Nc1ncc2c(C)cnc(NCC(C)(C)C)c2n1` [Example 151, N^2-(2-methoxy-4-(4-methyl-4H-1,2,4-triazol-3-yl)phenyl)-5-methyl-N^8-neopentylpyrido[3,4-d]pyrimidine-2,8-diamine] the value was 8.70; for `CCn1cc(-c2ccc(Nc3ncc4ccnc(NCC(C)(C)OC)c4n3)c(OC)c2)cn1` [Example 152, N^2-(4-(1-ethyl-1H-pyrazol-4-yl)-2-methoxyphenyl)-N^8-(2-methoxy-2-methylpropyl)pyrido[3,4-d]pyrimidine-2,8-diamine], 8.15; for `COc1cc(C(=O)N2CC(OC)C2)ccc1Nc1cc2c(-c3cnn(CCN(C)C)c3)cccc2cn1` [Example 1, (4-((5-(1-(2-(Dimethylamino)ethyl)-1H-pyrazol-4-yl)isoquinolin-3-yl)amino)-3-methoxyphenyl)(3-methoxyazetidin-1-yl)methanone], 7.21.
For `COc1cc(C2CCOCC2)ccc1Nc1ncc2ccnc(NCC3(C)CCOC3)c2n1` (stereo not shown) [Example 154, N^2-(2-methoxy-4-(tetrahydro-2H-pyran-4-yl)phenyl)-N^8-((3-methyltetrahydrofuran-3-yl)methyl)pyrido[3,4-d]pyrimidine-2,8-diamine] the value was 8.15; for `COc1cc(N2CCC(N3CCOCC3)CC2)ccc1Nc1ncc2ccnc(NCC(C)(C)C)c2n1` [Example 170, N2-(2-methoxy-4-(4-morpholinopiperidin-1-yl)phenyl)-N8-neopentylpyrido[3,4-d]pyrimidine-2,8-diamine], 8.40.
For the compound `COc1cc(-c2cnn(C)c2)ccc1Nc1ncc2ccnc(-c3cncnc3)c2n1` [Example 208, N-(2-methoxy-4-(1-methyl-1H-pyrazol-4-yl)phenyl)-8-(pyrimidin-5H)pyrido[3,4-d]pyrimidin-2-amine], the pIC50 is 6.70.
As for `COc1cc(-c2cnc(C)n2C)ccc1Nc1cc2c(-c3cnn(C)c3)nccc2cn1` [Example 104, N-(4-(1,2-dimethyl-1H-imidazol-5-yl)-2-methoxyphenyl)-5-(1-methyl-1H-pyrazol-4-yl)-2,6-naphthyridin-3-amine], the pIC50 is 8.15.
`COc1cc(-c2cnn(C)c2C)ccc1Nc1ncc2ccnc(NCC(C)(C)OC)c2n1` [Example 147, N^2-(4-(1,5-dimethyl-1H-pyrazol-4-yl)-2-methoxyphenyl)-N^8-(2-methoxy-2-methylpropyl)pyrido[3,4-d]pyrimidine-2,8-diamine]: the pIC50 was 8.70.
For the compound `COc1cc(-c2cnn(CCO)c2)ccc1Nc1ncc2ccnc(NC3CCCCC3)c2n1` [Example 43, 2-(4-(4-((8-(cyclohexylamino)pyrido[3,4-d]pyrimidin-2-yl)amino)-3-methoxyphenyl)-1H-pyrazol-1-yl)ethanol], the pIC50 was 7.85.
For `COC(C)(C)CNc1nc(C)cc2cnc(Nc3ccc(-c4cnn(C)c4)cc3OC(F)F)nc12` [Example 197] the value was 7.47.
For `COc1cc(-c2cnn(C)c2)ccc1Nc1ncc2ccnc(N3CCC(OC)CC3)c2n1` [Example 138, N-(2-Methoxy-4-(1-methyl-1H-pyrazol-4-yl)phenyl)-8-(4-methoxypiperidin-1-yl)pyrido[3,4-d]pyrimidin-2-amine] the value was 8.10; for `COc1cc(-c2cnn(C)c2)ccc1Nc1ncc2ccnc(NCC3CCOC3)c2n1` (stereo not shown) [Example 79, N2-(2-methoxy-4-(1-methyl-1H-pyrazol-4-yl)phenyl)-N8-((tetrahydrofuran-3-yl)methyl)pyrido[3,4-d]pyrimidine-2,8-diamine], 8.30.
As for `COc1cc(-c2nncn2C)ccc1Nc1ncc2ccnc(NCC(C)(C)C)c2n1` [Example 175, N2-(2-methoxy-4-(4-methyl-4H-1,2,4-triazol-3-yl)phenyl)-N8-neopentylpyrido[3,4-d]pyrimidine-2,8-diamine], the pIC50 is 8.70.
Turning to `COc1cc(-c2cnn(C)c2)ccc1Nc1ncc2ccnc(N3CCS(=O)(=O)CC3)c2n1` [Example 118, 4-(2-((2-methoxy-4-(1-methyl-1H-pyrazol-4-yl)phenyl)amino)pyrido[3,4-d]pyrimidin-8-yl)thiomorpholine 1,1-dioxide], the pIC50 was 7.96.
For `COc1cc(-c2cnn(C)c2CO)ccc1Nc1ncc2ccnc(NCC3(C)CCOC3)c2n1` (stereo not shown) [Example 185] the value was 9.00; for `COc1cc(-c2cnn(C)c2)ccc1Nc1ncc2ccnc(NC3CCOC3)c2n1` (stereo not shown) [Example 78, N2-(2-methoxy-4-(1-methyl-1H-pyrazol-4-yl)phenyl)-N8-(tetrahydrofuran-3-yl)pyrido[3,4-d]pyrimidine-2,8-diamine], 8.10.
